The source made the active and inactive calls. The rule behind the calls is not given here.

For assay [1], the system named is 3T3-L1. In words: Inhibition of fibronectin secretion in mouse 3T3-L1 cells assessed as reduction in accumulation of fibronectin in extracellular matrix incubated for 48 hrs by ELISA (reference value: 1389.10 +/- 9.19 ng/ml). Type of assay: functional, cell-based. Conditions: dose 0.5-2 mmol/L. For orientation: An ELISA detects its analyte on a solid surface through an enzyme-linked reagent.

In assay [2] the test system is 3T3-L1. In words: Inhibition of cell growth in mouse 3T3-L1 cells at 0.5 to 2 mmol/L by MTT assay. Conditions: dose 0.5-2 mmol/L, time 24-48 hrs, TDE = time-dependent effect. Type of assay: functional, cell-based.
The subject of assay [3] is 3T3-L1. In words: Inhibition of cell growth in mouse 3T3-L1 cells after 24 to 48 hrs by MTT assay. Conditions: time 24-48 hrs. Type of assay: functional, cell-based.
Assay [4] has as its system 3T3-L1. In words: Inhibition of cell growth in mouse 3T3-L1 cells at […] after 24 to 48 hrs by MTT assay. Type of assay: functional. Conditions: dose 2 mmol/L, time 24-48 hrs. (In general: Tetrazolium assays rely on reduction of a dye to a coloured formazan, in cell work by metabolically active cells.)

Take `N/N=C/c1ccc(-n2ccccc2=O)cc1`: in the assay with 3T3-L1 [1], the inhibition – broadly, the relative decrease from the control value, in per cent – is “Active”. The inhibition entry with 3T3-L1 [2] was “Tde”; with 3T3-L1 [3] it was “Dose-Dependent Effect”.

Take `Cc1ccc(=O)n(-c2ccccc2)c1`: the inhibition entry in the assay with 3T3-L1 [3] is “Dose-Dependent Effect”.

As for `O=c1ccccn1-c1ccc(C2=NCCCN2)cc1`, in the assay on 3T3-L1 [1], the inhibition entry was “Active”. Further, the inhibition entry in the assay with 3T3-L1 [2] was “Tde”; in the assay with 3T3-L1 [3], “Dose-Dependent Effect”.

Consider `O=c1ccccn1-c1ccc(C2=NCCN2)cc1`, for which the inhibition entry in the assay with 3T3-L1 [1] was “Active”. The inhibition result in the assay on 3T3-L1 [2] is “Tde”; in the assay with 3T3-L1 [3], “Dose-Dependent Effect”.

On to `NC(=O)N/N=C\c1ccc(-n2ccccc2=O)cc1`, for which the inhibition entry in the assay on 3T3-L1 [1] is “Active”. Further, the figures for the inhibition result with 3T3-L1 [2] and with 3T3-L1 [3] were “Tde” and “Dose-Dependent Effect”, respectively.

Regarding `NC(=S)N/N=C\c1ccc(-n2ccccc2=O)cc1`, in the assay on 3T3-L1 [1], the inhibition entry is “Active”. Also, the inhibition entry in the assay on 3T3-L1 [2] was “Tde”; in the assay on 3T3-L1 [3], “Dose-Dependent Effect”.

Compound `O=c1ccccn1-c1ccc(C2=NC3CCCCC3N2)cc1` (stereo not drawn) yielded an inhibition at 2000 µM in the assay with 3T3-L1 [4] of 95.4%. In the assay on 3T3-L1 [1], the inhibition result was “Active”. In addition, the inhibition entry in the assay on 3T3-L1 [2] is “Tde”; in the assay on 3T3-L1 [3], “Dose-Dependent Effect”.

As to `O=c1ccccn1-c1ccc(/C=N\Nc2ccccc2)cc1`, the inhibition entry in the assay on 3T3-L1 [1] is “Active”. In addition, the results for the inhibition entry in the assay on 3T3-L1 [2] and in the assay with 3T3-L1 [3] were “Tde” and “Dose-Dependent Effect”, respectively.

The values are drawn from ChEMBL document CHEMBL5329151, “Novel pirfenidone derivatives: synthesis and biological evaluation” (2023).
